One assay deals with PC3 cells. Description: EB1 Comet (microtubule disruption) assay. The assay is classed as cell-based, human. Particulars: 1 hour treatment; for minimal effective concentration: Homo sapiens, PC-3, 1 h, read-out: EB1 pLAC (converted). Summed up: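 PC3 human prostate cancer cells exposed to compound for 1 h at 37 °C (0.6% DMSO final), methanol-fixed, immunostained for Eb1 and imaged at 20×. Value is the lowest active concentration (LAC): the concentration at which Eb1 foci are absent in at least 50% of treated cells.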

The target in a further assay is T1, TANK-2 enzyme (Homo sapiens, UniProt Q9H2K2).
T1 construct: made in house
T1 sequence (Q9H2K2 1-1166): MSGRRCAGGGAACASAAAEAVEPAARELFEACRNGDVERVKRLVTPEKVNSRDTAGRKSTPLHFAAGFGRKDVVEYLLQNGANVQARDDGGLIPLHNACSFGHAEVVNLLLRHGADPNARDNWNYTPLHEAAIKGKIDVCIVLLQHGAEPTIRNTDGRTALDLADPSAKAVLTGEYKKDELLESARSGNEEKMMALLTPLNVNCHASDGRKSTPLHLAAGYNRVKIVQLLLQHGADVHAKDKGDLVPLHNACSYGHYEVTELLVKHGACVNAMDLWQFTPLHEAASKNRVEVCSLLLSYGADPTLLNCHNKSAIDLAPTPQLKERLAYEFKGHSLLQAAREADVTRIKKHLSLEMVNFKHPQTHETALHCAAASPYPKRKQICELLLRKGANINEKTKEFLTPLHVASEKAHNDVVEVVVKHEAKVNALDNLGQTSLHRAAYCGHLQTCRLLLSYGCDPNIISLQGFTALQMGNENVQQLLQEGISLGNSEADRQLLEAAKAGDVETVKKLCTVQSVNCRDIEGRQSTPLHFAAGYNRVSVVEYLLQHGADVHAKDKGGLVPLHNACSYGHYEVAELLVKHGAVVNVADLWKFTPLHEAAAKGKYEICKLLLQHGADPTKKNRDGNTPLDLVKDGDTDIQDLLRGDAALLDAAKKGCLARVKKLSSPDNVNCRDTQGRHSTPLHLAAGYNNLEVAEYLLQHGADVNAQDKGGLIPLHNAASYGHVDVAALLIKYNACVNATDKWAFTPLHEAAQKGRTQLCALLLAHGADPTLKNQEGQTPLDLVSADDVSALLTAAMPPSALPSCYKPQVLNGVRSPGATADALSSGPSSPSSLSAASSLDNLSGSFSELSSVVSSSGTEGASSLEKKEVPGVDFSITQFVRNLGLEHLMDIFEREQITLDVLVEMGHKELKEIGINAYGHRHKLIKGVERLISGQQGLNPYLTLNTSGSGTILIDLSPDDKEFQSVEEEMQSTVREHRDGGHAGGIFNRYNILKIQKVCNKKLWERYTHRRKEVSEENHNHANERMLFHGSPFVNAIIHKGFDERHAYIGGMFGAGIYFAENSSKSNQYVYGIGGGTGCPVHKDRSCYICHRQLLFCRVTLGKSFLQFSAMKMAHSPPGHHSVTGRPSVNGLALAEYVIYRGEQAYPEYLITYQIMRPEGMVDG
Put plainly: In vitro Scintillation Proximity Assay (SPA) for TANK-2 inhibitory activity. It counts as biochemical. Particulars: read-out: in vitro SPA assay TANK-2 pIC50 (converted). Summed up: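 TANK-2 (8 μg/ml final) auto-poly(ADP-ribosyl)ation with [3H]-NAD+/NAD donor was run in Ni flash plates in Tris/HCl pH 7.4 buffer with DTT and MgCl2, 120 min at room temperature, then stopped with excess NAD and scintillation-counted. Blank-corrected cpm was expressed as % of enzyme control, and IC50 was linearly interpolated and reported as pIC50.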
A general note: Scintillation proximity formats need no separation of bound from free tracer.

Structures are written as SMILES.

For `CCc1cc2ccc(C(C)(C#N)Cc3ccccc3F)cc2[nH]c1=O` (stereo not shown) [Compound 106], the minimal effective concentration in the assay on PC3 cells is 0.316 µM. In addition, at TANK-2 enzyme, the IC50 was 50.1 nM.
For the molecule `CCc1cc2ccc(C(C)(C#N)Cc3cccc(C)c3)cc2[nH]c1=O` (stereo not shown) [Compound 107], in the assay on PC3 cells, the minimal effective concentration is 1 µM. Moreover, the IC50 at TANK-2 enzyme is 31.6 nM.
`CCc1cc2ccc(C(C)(C#N)Cc3cccc(C(F)(F)F)c3)cc2[nH]c1=O` (stereo not shown) [Compound 109]: in the assay on PC3 cells, the minimal effective concentration is 3.16 µM. Also, at TANK-2 enzyme, the IC50 was 79.4 nM.
The corresponding values for `CCc1cc2ccc(C(C)(C#N)Cc3cccc(OC(F)(F)F)c3)cc2[nH]c1=O` (stereo not shown) [Compound 110] are 0.1 µM and 126 nM.
The corresponding values for `CCc1cc2ccc(C(C)(C#N)Cc3cccc(F)c3)cc2[nH]c1=O` (stereo not shown) [Compound 112] are 1 µM and 25.1 nM.
The corresponding values for `CCc1cc2ccc(C(C)(C#N)Cc3cccc(OC)c3)cc2[nH]c1=O` (stereo not shown) [Compound 113] are greater than 10 µM and 20 nM.
With `CCc1cc2ccc(C(C)(C#N)Cc3ccc(OC(F)(F)F)cc3)cc2[nH]c1=O` (stereo not shown) [Compound 114], in the assay on PC3 cells, the minimal effective concentration is 1 µM. The IC50 at TANK-2 enzyme was 501 nM.
In the case of `CCc1cc2ccc(C(C)(C#N)Cc3c(F)c(F)c(F)c(F)c3F)cc2[nH]c1=O` (stereo not shown) [Compound 116], the minimal effective concentration in the assay on PC3 cells was 0.316 µM. Besides, the IC50 on TANK-2 enzyme was 79.4 nM.
With `CCc1cc2ccc(C(C)(C#N)Cc3ccc(Br)cc3)cc2[nH]c1=O` (stereo not shown) [Compound 118], the minimal effective concentration with PC3 cells was 3.16 µM. The IC50 on TANK-2 enzyme was 31.6 nM.
As to `CCc1cc2ccc(C(C)(C#N)Cc3ccc(OC)cc3)cc2[nH]c1=O` (stereo not shown) [Compound 119], the minimal effective concentration with PC3 cells was 3.16 µM. At TANK-2 enzyme, the IC50 is 31.6 nM.
The corresponding values for `CCc1cc2ccc(C(C)(C#N)Cc3cccc(F)c3F)cc2[nH]c1=O` (stereo not shown) [Compound 120] are 0.316 µM and 50.1 nM.
`CCc1cc2ccc(C(C)(C#N)Cc3cccc(Cl)c3Cl)cc2[nH]c1=O` (stereo not shown) [Compound 121]: the minimal effective concentration in the assay with PC3 cells was 0.316 µM. Moreover, the IC50 on TANK-2 enzyme was 79.4 nM.
Turning to `CCc1cc2ccc(C(C)(C#N)Cc3ccc4ccccc4c3)cc2[nH]c1=O` (stereo not shown) [Compound 122], in the assay on PC3 cells, the minimal effective concentration was 1 µM. Also, the IC50 at TANK-2 enzyme is 100 nM.
Regarding `CCc1cc2ccc(C(C)(C#N)Cc3ccc4c(c3)nnn4C)cc2[nH]c1=O` (stereo not shown) [Compound 123], the minimal effective concentration in the assay on PC3 cells was 3.16 µM. In addition, the IC50 at TANK-2 enzyme is 100 nM.
In the same order, the values of `CCc1cc2ccc(C(C)(C#N)Cc3ccc4c(c3)OCCO4)cc2[nH]c1=O` (stereo not shown) [Compound 124] are 1 µM and 100 nM.
In the same order, the values of `CCc1cc2ccc(C(C)(C#N)Cc3cc(C)cc(C)c3)cc2[nH]c1=O` (stereo not shown) [Compound 125] are 0.1 µM and 100 nM.
Regarding `CCc1cc2ccc(C(C)(C#N)Cc3cc(F)cc(Cl)c3)cc2[nH]c1=O` (stereo not shown) [Compound 126], the minimal effective concentration in the assay with PC3 cells is 0.316 µM. Also, the IC50 at TANK-2 enzyme was 100 nM.
Regarding `CCc1cc2ccc(C(C)(C#N)Cc3cc(F)cc(C(F)(F)F)c3)cc2[nH]c1=O` (stereo not shown) [Compound 127], the minimal effective concentration with PC3 cells is 1 µM. The IC50 on TANK-2 enzyme was 398 nM.
For the molecule `CCc1cc2ccc(C(C)(C#N)Cc3cc(F)cc(F)c3)cc2[nH]c1=O` (stereo not shown) [Compound 128], the “EB1 pLAC” value in the assay with PC3 cells is 7.5. The IC50 at TANK-2 enzyme is 158 nM.
For `CCc1cc2ccc(C(C)(C#N)Cc3cccc(S(C)(=O)=O)c3)cc2[nH]c1=O` (stereo not shown) [Compound 129], the minimal effective concentration with PC3 cells is 1 µM. On TANK-2 enzyme, the IC50 was 126 nM.
In the same order, the values of `CCc1cc2ccc(C(C)(C#N)Cc3cccc(Cl)c3F)cc2[nH]c1=O` (stereo not shown) [Compound 130] are 0.1 µM and 79.4 nM.
In the same order, the values of `CCc1cc2ccc(C(C)(C#N)Cc3cccc(C)c3F)cc2[nH]c1=O` (stereo not shown) [Compound 132] are 0.316 µM and 63.1 nM.
On to `CCc1cc2ccc(C(C)(C#N)Cc3cccc(C(F)(F)F)c3F)cc2[nH]c1=O` (stereo not shown) [Compound 134], for which the minimal effective concentration in the assay with PC3 cells was 1 µM. Moreover, on TANK-2 enzyme, the IC50 was 126 nM.
Turning to `CCc1cc2ccc(C(C)(C#N)Cc3c(Cl)cccc3Cl)cc2[nH]c1=O` (stereo not shown) [Compound 135], the minimal effective concentration in the assay on PC3 cells was 1 µM. Further, on TANK-2 enzyme, the IC50 was 50.1 nM.
The corresponding values for `CCc1cc2ccc(C(C)(C#N)Cc3c(Cl)cccc3Br)cc2[nH]c1=O` (stereo not shown) [Compound 136] are 1 µM and 50.1 nM.
For the molecule `CCc1cc2ccc(C(C)(C#N)Cc3ccc(F)cc3F)cc2[nH]c1=O` (stereo not shown) [Compound 137], the minimal effective concentration in the assay with PC3 cells was 1 µM. Besides, the IC50 on TANK-2 enzyme was 63.1 nM.
In the same order, the values of `CCc1cc2ccc(C(C)(C#N)Cc3c(F)cccc3F)cc2[nH]c1=O` (stereo not shown) [Compound 138] are 1 µM and 63.1 nM.
The corresponding values for `CCc1cc2ccc(C(C)(C#N)Cc3ccc(F)cc3Br)cc2[nH]c1=O` (stereo not shown) [Compound 139] are 0.316 µM and 79.4 nM.
In the same order, the values of `CCc1cc2ccc(C(C)(C#N)Cc3cccc(Cl)c3)cc2[nH]c1=O` (stereo not shown) [Compound 140] are 0.1 µM and 126 nM.
For `CCc1cc2ccc(C(C)(C#N)Cc3cc(Cl)cc(Cl)c3)cc2[nH]c1=O` (stereo not shown) [Compound 141], the minimal effective concentration in the assay with PC3 cells is 0.1 µM. The IC50 at TANK-2 enzyme is 126 nM.
In the same order, the values of `CCOc1ccccc1OCCC(C)(C#N)c1ccc2cc(CC)c(=O)[nH]c2c1` (stereo not shown) [Compound 142] are 1 µM and 158 nM.
The corresponding values for `CCc1cc2ccc(C(C)(C#N)CCOc3cccc(C)c3)cc2[nH]c1=O` (stereo not shown) [Compound 143] are 1 µM and 158 nM.
With `CCc1cc2ccc(C(C)(C#N)CCOc3ccc(F)cc3)cc2[nH]c1=O` (stereo not shown) [Compound 144], in the assay with PC3 cells, the minimal effective concentration is 0.316 µM. For the same molecule, the IC50 on TANK-2 enzyme is 100 nM.
With `CCc1cc2ccc(C(C)(C#N)CCOc3ccccc3)cc2[nH]c1=O` (stereo not shown) [Compound 145], the minimal effective concentration in the assay on PC3 cells is 1 µM. In addition, the IC50 on TANK-2 enzyme is 50.1 nM.
The corresponding values for `CCc1cc2ccc(C(C)(C#N)CCOc3ccc(OC)cc3)cc2[nH]c1=O` (stereo not shown) [Compound 147] are 1 µM and 79.4 nM.
The corresponding values for `CCc1cc2ccc(C(C)(C#N)CCOc3ccccc3C)cc2[nH]c1=O` (stereo not shown) [Compound 148] are 0.316 µM and 100 nM.
The corresponding values for `CCc1cc2ccc(C(C)(C#N)CCOc3cccc(Cl)c3)cc2[nH]c1=O` (stereo not shown) [Compound 151] are 1 µM and 200 nM.
On to `CCc1cc2ccc(C(C)(C#N)CCOc3ccc(Cl)cc3Cl)cc2[nH]c1=O` (stereo not shown) [Compound 154], for which, in the assay on PC3 cells, the minimal effective concentration was 0.1 µM. For the same molecule, the IC50 on TANK-2 enzyme was 200 nM.
The corresponding values for `CCc1cc2ccc(C(C)(C#N)CC3CN(C)c4ccccc4O3)cc2[nH]c1=O` (stereo not shown) [Compound 156] are 1 µM and 398 nM.
Take `CCc1cc2ccc(C(C)(C#N)CCOc3ccc4ccccc4c3)cc2[nH]c1=O` (stereo not shown) [Compound 157]: the minimal effective concentration with PC3 cells was 0.1 µM. Besides, on TANK-2 enzyme, the IC50 is 316 nM.
Take `CCc1cc2ccc(C(C)(C#N)CCOc3cccc4ccccc34)cc2[nH]c1=O` (stereo not shown) [Compound 158]: the minimal effective concentration in the assay on PC3 cells was 0.316 µM. Moreover, on TANK-2 enzyme, the IC50 was 501 nM.

Values taken from patent US8778966B2, “Quinolinone derivatives as PARP and tank inhibitors” (Janssen Pharmaceutica, NV, priority 2007, dated 2014).
